Literature values as cited in patent US9974867B2, “Cytotoxic benzodiazepine derivatives” (priority 2014, dated 2018).

Details: Phase I clinical evaluation; cited from earlier work

C=C1C[C@H]2C=Nc3cc(OCCCOc4cc5c(cc4OC)C(=O)N4CC(=C)C[C@H]4C=N5)c(OC)cc3C(=O)N2C1 [SJG-136]
maximum tolerated dose: 45 μg/m^2
